{"source": "patent US9604974B2", "about": "“Compounds as modulator of JAK-STAT pathway, methods and applications thereof” (UNIVERSITY OF MYSORE, priority 2015, dated 2017)", "format_in_all_cases": "cell-based, human", "key": {"phospho-STAT3 (Y705)": {"tested_on": "phospho-STAT3 (Y705)", "test": "Western blot of constitutive phospho-STAT3 (Y705) in HepG2", "description": "FIG. 2 depicts the suppression of phospho-STAT3 by compound 1 (CIMO) in a dose dependent manner [A]. HepG2 cells (5×10^5/mL) are treated with the indicated concentrations of CIMO for 6 hours, after which whole-cell extracts are prepared and resolved on SDS-PAGE gel, electrotransferred onto nitrocellulose membrane, and probed for phospho-STAT3. The same blot is stripped and reprobed with STAT3 antibody to verify equal protein loading. […] HepG2 cells (5×10^5/mL) are treated with the indicated concentrations of AG490 for about 6 hours, after which Western Blotting is done as described for [A]. [C] depicts the suppression of phospho-STAT3 levels by Compound 1 (CIMO) in a time-dependent manner. HepG2 cells (5×10^5/mL) are treated with 10 μMol/L CIMO for the indicated times, after which Western blotting is done as described for [A]. [D] depicts that compound 1 (CIMO) has no effect on phospho-STAT3 (Ser-727) and STAT3 protein expression. HepG2 cells (5×10^5/mL) are treated with 10 μMol/L CIMO for the indicated times, after which Western Blotting is done as described for [A] and membrane is probed using antibodies against phospho-STAT3 (Ser-727) and STAT3. […] HepG2 cells (1×10^5/mL) are incubated with or without 10 μMol/L CIMO for about 6 hours and then analyzed for the intracellular distribution of STAT3 by immunocytochemistry. The same slides are counterstained for nuclei with Hoechst (50 ng/mL) for about 5 minutes and analyzed under an fluorescencemicroscope. […] HepG2 cells (5×10^5/mL) are treated with 10 μMol/L CIMO, after which whole-cell extracts are prepared, resolved in SDS-PAGE, electrotransferred onto nitrocellulose membrane, and probed with phospho-Src, phospho-JAK1 and phospho-JAK2 antibodies. The same blots are stripped and reprobed with Src, JAK1 and JAK2 antibodies to verify equal protein loading. [G] depicts the suppression of STAT3 DNA binding ability by Compound 1 (CIMO) in HepG2 cells. HepG2 cells are treated with 10 μMol/L CIMO for the indicated time, nuclear extracts are prepared, and 5 μg of the nuclear extract protein is used for ELISA-based DNA-binding assay.\nCIMO is tested towards the inhibition of constitutive activation of STAT3 in HepG2 cells by Western Blotting via antibodies recognising phospho-STAT3 (Y705). For detection of phospho-proteins, CIMO treated whole-cell extracts are lysed in lysis buffer [20 mM Tris (pH 7.4), 250 mM NaCl, 2 mM Ethylenediaminetetraacetic acid (pH 8.0), 0.1% Triton-X-100, 0.01 mg/ml aprotinin, 0.005 mg/ml leupeptin, 0.4 mM phenylmethanesulfonylfluoride, and 4 mM NaVO4). Lysates are then spun at 14,000 rpm for about 10 minutes to remove insoluble material and resolved on SDS gel. After electrophoresis, the proteins are electrotransferred to a nitrocellulose membrane, blocked with 5% non-fat milk, and probed with various antibodies (1:1000) overnight at about 4° C. The blot is washed, exposed to HRP-conjugated secondary antibodies for about 1 hour, and finally examined by chemiluminescence (ECL; GE Healthcare, Little Chalfont, Buckinghamshire, UK)."}, "[1]": {"tested_on": "STAT3 mediated transcription (α2-M promoter)", "test": "α2-macroglobulin promoter luciferase reporter assay", "conditions": "HepG2, versus DMSO control", "description": "Increased STAT3 activity is known to stimulate oncogenicity of hepatocellular carcinoma. Therefore, evaluation of the level of phosphorylated STAT3 (Y705) in HepG2 cells is carried out with siRNA-mediated deletion of STAT3 transcripts and/or exposure to CIMO, using Western Blot analysis. Experiments related to transient-transfection of STAT3 siRNA in HepG2 cells and STAT3 mediated Transcription activity are performed wherein 60-70% confluent of cells in a 6-well plate are transfected using FuGENE6 (Roche Molecular Biochemicals, Indianapolis, USA) transfection reagent. Luciferase assay is performed using Dual Luciferase Assay Kit (Promega Corp, Singapore). Transfections are carried out in triplicate using 1 μg of the appropriate α-2 macroglobulin luciferase reporter plasmid and empty vector per transfection along with 0.2 μg of Renilla expression plasmid as control for transfection efficiency. Luciferase activities are assayed 48 hours after transfection using the dual Luciferase Assay System (Promega Corp, Singapore)\nIn addition, assessment of STAT3 mediated transcriptional activity using an α2-macroglobulin (α2-M) promoter in HepG2 cells with either siRNA-mediated depletion of STAT3 expression or on exposure to CIMO is carried out as described above (FIG. 3B)."}, "HepG2 cells": {"tested_on": "HepG2 cells", "test": "CXCL12-induced wound migration assay", "conditions": "5 μM CIMO, presence and absence of CXCL12, versus controls", "description": "STAT3 targeted gene products are known to be involved in cancer cell migration. FIG. 5A interprets the movement of cancer cells in the presence and absence of CIMO and C—X—C motif chemokine 12 (CXCL12) protein. CXCL12 is a chemokine which essentially stimulates the swift migration of cancer cells. An IBIDI culture insert (IBIDI GmbH) is developed with two reservoirs separated by a 500 μm thick wall created by a culture insert in a 35 mm petri dish. 70 μl of HepG2 cells (5×10^5 cells/ml) are added into the two reservoirs of the same insert and incubated at about 37° C. After 12 hours, the insert is gently removed by creating a gap of ˜500 μm. The cells are treated with about 5 μM CIMO for about 8 hours before being exposed to about 100 ng/mL CXCL12 for about 24 hours. Width of wound is measured at time zero and 24 hours of incubation with and without CIMO in the absence or presence of CXCL12. Graphs are plotted against the percentage of migration or distance the cells moved before and after treatment, normalized to control."}}, "note": "Entries after “also recorded” stand apart in the source; their conditions may differ."}
{"smiles": "COc1ccc(C2CNC(c3cn(Cc4ccc(-c5ccccc5C#N)cc4)c4ccccc34)OC23CCCCC3)cc1", "note": "(stereo not drawn) [Compound 1]", "values": [{"measurement": "time of maximum inhibition of phospho-STAT3", "setting": "phospho-STAT3 (Y705); HepG2", "value": 6, "unit": "h"}, {"measurement": "phospho-STAT3 levels versus DMSO control", "setting": "phospho-STAT3 (Y705); HepG2, 4 μM CIMO", "value": "decreased phospho-STAT3 levels"}, {"measurement": "protein levels of total STAT3 versus DMSO control", "setting": "phospho-STAT3 (Y705); HepG2, 4 μM CIMO", "value": "not significantly altered"}, {"measurement": "concentration of maximum inhibition of phospho-STAT3", "setting": "phospho-STAT3 (Y705); HepG2, 6 hours", "value": 20, "unit": "µM"}, {"measurement": "concentration for comparable phospho-STAT3 effect versus AG490", "setting": "phospho-STAT3 (Y705); HepG2, CIMO compared to AG490", "value": "ten-fold lower concentration"}, {"measurement": "levels of phospho-STAT3 (Y705)", "setting": "phospho-STAT3 (Y705); HepG2, Western blot, dose and time course, listed as CIMO", "value": "substantially downregulated in a dose- and time-dependent manner; also recorded: completely inhibits"}, {"measurement": "STAT3 protein expression", "setting": "phospho-STAT3 (Y705); HepG2, same blots reprobed", "value": "remains unchanged"}, {"measurement": "α2-M promoter activity", "setting": "[1]", "value": "decreased α2-M promoter activity"}, {"measurement": "limitation of HepG2 cell migration", "setting": "HepG2 cells", "value": "~50", "unit": "%"}]}
